Where only a bound is given, the exact number is not on record here.

Series [1] deals with PAM212. Put plainly: Phototoxicity against mouse PAM212 cells assessed as cell growth inhibition preincubated for 30 mins followed by 1.28 J/cm2 UV light exposure and measured after 5 days by coulter counting method. It is filed as functional, cell-based. The conditions noted are these: PAM212, light or radiation study.
Series [2] is described as follows: Dark toxicity against mouse PAM212 cells assessed as cell growth inhibition incubated for 30 mins under dark condition measured after 5 days by coulter counting method. The series is classed as cell-based.
Series [3] in a line: Dark toxicity against mouse PAM212 cells assessed as cell growth inhibition incubated for 5 days under dark condition by coulter counting method. The series is classed as cell-based.

As usually defined, the IC50 is the concentration at which inhibition is half-maximal. In the case of `COc1c2occc2c(NC(=O)c2ccc(N=[N+]=[N-])cc2)c2ccc(=O)oc12`, the IC50 in series [1] amounted to 33 µM. The IC50 at 30 min in series [2] was > 100 µM. Besides, the IC50 at 5 days in series [3] was > 300 µM.
As for `COc1c2occc2cc2ccc(=O)oc12` [METHOXSALEN], the half-maximal inhibitory concentration (IC50) in series [1] was determined as 0.1 µM. Further, the IC50 at 30 min in series [2] was > 100 µM. Moreover, in series [3], the IC50 at 5 days was > 100 µM.
On to `COc1c2occc2c(NC(=O)NCCCl)c2ccc(=O)oc12`, for which, in series [1], the IC50 was > 100 µM. Besides, the IC50 at 30 min in series [2] was > 100 µM. Further, in series [3], the IC50 at 5 days was > 300 µM.
For the compound `COc1c2occc2c(/N=N/N(C)C)c2ccc(=O)oc12`, in series [1], the 50% inhibitory concentration (IC50) was > 100 µM. For the same compound, the 50% inhibitory concentration (IC50) at 30 min in series [2] was > 100 µM. Also, the IC50 at 5 days in series [3] came to 20 µM.
Turning to `COc1c2occc2c(NC(=O)CCl)c2ccc(=O)oc12`, the 50% inhibitory concentration (IC50) in series [1] came to 40 µM. Besides, the half-inhibitory concentration (IC50) at 30 min in series [2] was found to be 50 µM. The IC50 at 5 days in series [3] is 4 µM.
Consider `CCN(C)/N=N/c1c2ccoc2c(OC)c2oc(=O)ccc12`, for which the IC50 in series [1] was > 70 µM. Moreover, in series [2], the IC50 at 30 min is > 100 µM. Also, the IC50 at 5 days in series [3] was 10 µM.
The matching figures for `CCCCN(C)/N=N/c1c2ccoc2c(OC)c2oc(=O)ccc12`: 4 µM, > 100 µM and 7 µM.
On to `CCN(CC)/N=N/c1c2ccoc2c(OC)c2oc(=O)ccc12`, for which the IC50 in series [1] was > 100 µM. Besides, the IC50 at 30 min in series [2] was > 100 µM. In addition, the IC50 at 5 days in series [3] came to 6 µM.

For the origin of these results see ChEMBL document CHEMBL4330139, “Synthetically modified methoxsalen for enhanced cytotoxicity in light and dark reactions” (Bioorg Med Chem Lett, 2019).
